Literature values in patent US20160256406A1, “OLIGOMERIC/POLYMERIC SILICONE FLUIDS FOR USE IN TRANSDERMAL DRUG DELIVERY SYSTEMS” (priority 2015, published 2016).

Tests used:
[1] = at RT
[2] = at RT; remark: listed apart in the source

Compound | Octanol/Water Partition Coefficient (Log Kow) [1] | Water Solubility [2] [µg/mL]
C[Si]1(C)O[Si](C)(C)O[Si](C)(C)O1 [D3, Hexamethylcyclotrisiloxane] | 4.5 | 
C[Si]1(C)O[Si](C)(C)O[Si](C)(C)O[Si](C)(C)O1 [D4, Octamethylcyclotetrasiloxane] | 5.1 | 
C[Si]1(C)O[Si](C)(C)O[Si](C)(C)O[Si](C)(C)O[Si](C)(C)O1 [D5, Decamethylcyclopentasiloxane] | 5.2-5.7 | 0.017 to 0.050
C[Si]1(C)O[Si](C)(C)O[Si](C)(C)O[Si](C)(C)O[Si](C)(C)O[Si](C)(C)O1 [D6, Dodecamethylcyclohexasiloxane] | 6.3 | 0.005
C[Si](C)(C)O[Si](C)(C)C [L2, Hexamethyldisiloxane] | 4.2 | 
C[Si](C)(C)O[Si](C)(C)O[Si](C)(C)C [L3, Octamethyltrisiloxane] | 4.8 | 
C[Si](C)(C)O[Si](C)(C)O[Si](C)(C)O[Si](C)(C)C [L4, Decamethyltetrasiloxane] | 5.4 | 
C[Si](C)(C)O[Si](C)(C)O[Si](C)(C)O[Si](C)(C)O[Si](C)(C)C [L5, Dodecamethylpentasiloxane] | 6.0 | 
